Experimental data published in patent US12558428B2, “Heterobifunctional compounds and their use in treating disease” (Halda Therapeutics OpCo, Inc., priority 2024, dated 2026).

Tests used:
BRD4-BD1 = target: T1, BRD4-BD1 (Homo sapiens, UniProt O60885); experiment: Binding affinity to BRD4-BD1 (bromoKdELECT assay)
T1 construct: made in house; host or cells: T7 phage grown in E. coli host derived from BL21
Description: Exemplary compounds were tested for ability to bind to BRD4-BD 1.
Compounds were tested using a bromoKdELECT assay. T7 phage strains displaying bromodomains were grown in parallel in 24-well blocks in an E. coli host derived from the BL21 strain. E. coli were grown to log-phase and infected with T7 phage from a frozen stock (multiplicity of infection=0.4) and incubated with shaking at 32° C. until lysis (90-150 minutes). The lysates were centrifuged (5,000×g) and filtered ([…]) to remove cell debris. […] The liganded beads were blocked with excess biotin and washed with blocking buffer (SeaBlock (Pierce), 1% BSA, 0.05% Tween 20, 1 mM DTT) to remove unbound ligand and to reduce nonspecific phage binding. […] Test compounds were prepared as 1000× stocks in 100% DMSO. Kds were determined using an 11-point 3-fold compound dilution series with one DMSO control point. […] The compounds were then diluted directly into the assays such that the final concentration of DMSO was 0.09%. All reactions performed in polypropylene 384-well plates. Each was a final volume of 0.02 ml. […] The bromodomain concentration in the eluates was measured by qPCR.

BRD4-BD2 = target: T2, BRD4-BD2 (Homo sapiens, UniProt O60885); experiment: Binding affinity to BRD4-BD2 (bromoKdELECT assay)
T2 construct: made in house; host or cells: T7 phage grown in E. coli host derived from BL21
Description: Exemplary compounds were tested for ability to bind to BRD4-BD2.
Compounds were tested using a bromoKdELECT assay. T7 phage strains displaying bromodomains were grown in parallel in 24-well blocks in an E. coli host derived from the BL21 strain. E. coli were grown to log-phase and infected with T7 phage from a frozen stock (multiplicity of infection=0.4) and incubated with shaking at 32° C. until lysis (90-150 minutes). The lysates were centrifuged (5,000×g) and filtered ([…]) to remove cell debris. Streptavidin-coated magnetic beads were treated with biotinylated small molecule or acetylated peptide ligands for 30 minutes at room temperature to generate affinity resins for bromodomain assays. The liganded beads were blocked with excess biotin and washed with blocking buffer (SeaBlock (Pierce), 1% BSA, 0.05% Tween 20, 1 mM DTT) to remove unbound ligand and to reduce nonspecific phage binding. Binding reactions were assembled by combining bromodomains, liganded affinity beads, and test compounds in 1× binding buffer (17% SeaBlock, 0.33×PBS, 0.04% Tween 20, 0.02% BSA, 0.004% Sodium azide, 7.4 mM DTT). Test compounds were prepared as 1000× stocks in 100% DMSO. Kds were determined using an 11-point 3-fold compound dilution series with one DMSO control point. […] The bromodomain concentration in the eluates was measured by qPCR.

Kd (BRD4-BD1) [nM]	Kd (BRD4-BD2) [nM]	SMILES
< 50	< 50	CCN(CCOCCOCCNC(=O)C[C@@H]1N=C(c2ccc(Cl)cc2)c2c(sc(C)c2C)-n2c(C)nnc21)CCOc1ccc(C(=O)c2c(-c3ccc(O)cc3)sc3cc(O)ccc23)cc1 [I-3, (S)-2-(4-(4-chlorophenyl)-2,3,9-trimethyl-6H-thieno[3,2-f][1,2,4]triazolo[4,3-a][1,4]diazepin-6-yl)-N-(2-(2-(2-(ethyl(2-(4-(6-hydroxy-2-(4-hydroxyphenyl)benzo[b]thiophene-3-carbonyl)phenoxy)ethyl)amino)ethoxy)ethoxy)ethyl) acetamide]
50 to 500	< 50	CCN(CCCCCCCCNC(=O)C[C@@H]1N=C(c2ccc(Cl)cc2)c2c(sc(C)c2C)-n2c(C)nnc21)CCOc1ccc(C(=O)c2c(-c3ccc(O)cc3)sc3cc(O)ccc23)cc1 [I-2, (S)-2-(4-(4-chlorophenyl)-2,3,9-trimethyl-6H-thieno[3,2-f][1,2,4]triazolo[4,3-a][1,4]diazepin-6-yl)-N-(8-(ethyl(2-(4-(6-hydroxy-2-(4-hydroxyphenyl)benzo[b]thiophene-3-carbonyl)phenoxy)ethyl)amino)octyl)acetamide]
